Here are results for one compound from US20220291236A1, “DETECTION OF DYSTROGLYCAN” (ML Bio Solutions Inc., priority 2021, published 2022).

Each structure is given as a SMILES string.

The experiment has as its system alpha-dystroglycan (αDG). The experiment can be described thus: Multiplexed Western Blot of total αDG and glycosylated αDG in muscle lysates of P448L mutant FKRP mice untreated or treated with 5% Ribitol. In kind it is in vivo, mouse. The settings on record: 5% Ribitol treated P488L mice compared to untreated P488L mice, heart muscle and TA lysates, region ~50-250 kDa. As to the method: Tissue samples were processed using a TissueLyzer IITM (Qiagen®). Approximately 250 milligrams (mg) of tissue was placed in a 2 mL microtube with a steel bead and 1 mL of Radioimmunoprecipitation assay buffer (RIPA) buffer supplemented with protease and phosphatase inhibitors. The microtubes were subjected to three cycles of disruption (2 minutes at 25 Hertz (Hz)) in the TissueLyzer IITM. Lysates were clarified by centrifugation and the supernatant was transferred to fresh tubes and lysate concentration was determined using a BCA assay (Pierce®). Polyacrylamide gel electrophoresis was carried out on 4-20% […] gels. […] The membrane was visualized on an Odyssey CLxTM imager (LiCorTM) and intensities of the 700 and 800 nm channels were recorded. […] Signal intensities were normalized to total protein and the ratio of 700 nm normalized signal/800 nm normalized signal was determined. Linear fits were assessed where applicable using the linear regression function of PrismTM. Statistical significance was determined using an unpaired t-test using PrismTM. 1) StainFree gel image is quantitated using ImageLabTM software to analyze the image from the ChemiDocTM Imaging System. […] Signal intensities were normalized to total protein and the ratio of 700 nm normalized signal/800 nm normalized signal was determined. Linear fits were assessed were applicable using a linear regression function. […]

Take `OC[C@@H](O)[C@@H](O)[C@@H](O)CO` [Ribitol, (2R,3s,4S)-Pentane-1,2,3,4,5-pentol]: the “αDG expression (total αDG signal)” value (normalized to C57 untreated control (FIG. 6B)) is reported as “increased”. In addition, the “ratio of glycosylated αDG to total αDG” value (normalized to C57 untreated control (FIG. 6C)) is listed as “increased”.
